Measurements reported in patent publication US6242216A, “Nucleic acids encoding a functional human purinoreceptor P2X2 and P2X4, and methods of production and use thereof” (Abbott Laboratories, priority 1998, dated 2001).
“And” between values parts separate entries of the source, which are not always exact repeats. Identical values can stand only once. Like-named read-outs stand apart in the source and are kept apart here.

Columns and labels:
human P2X4 receptor = biological target: T1, human P2X4 receptor (Homo sapiens, UniProt Q99571); assay: Two-electrode voltage-clamp of Xenopus oocytes expressing recombinant human P2X4 receptors; type: cell-based
T1 construct: expressed in transfected cells; host or cells: Xenopus laevis oocytes, nuclear injection of P2X4-pCDNA3.1 DNA (10 ng) or cytoplasmic injection of RNA (50 ng)
T1 sequence (Q99571 1-388): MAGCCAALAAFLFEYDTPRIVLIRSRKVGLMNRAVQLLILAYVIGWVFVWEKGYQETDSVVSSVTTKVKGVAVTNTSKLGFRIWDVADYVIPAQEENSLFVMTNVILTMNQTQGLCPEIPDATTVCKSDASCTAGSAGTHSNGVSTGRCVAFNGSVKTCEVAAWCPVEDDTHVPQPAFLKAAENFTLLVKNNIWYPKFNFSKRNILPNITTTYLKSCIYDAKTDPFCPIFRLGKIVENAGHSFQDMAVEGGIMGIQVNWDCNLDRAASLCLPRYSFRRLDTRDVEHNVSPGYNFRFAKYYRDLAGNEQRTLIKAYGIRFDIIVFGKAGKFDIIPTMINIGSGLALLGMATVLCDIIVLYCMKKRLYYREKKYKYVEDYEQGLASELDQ
Protocol: Responses were measured at a holding potential of -60 mV in modified Barth's solution containing 10 mM BaCl2 and lacking CaCl2 and MgCl2. However, in some experiments, the cell potential was intentionally varied in order to determine the response current-voltage relationship. Agonist was applied briefly using a computer-controlled solenoid valve and a push/pull applicator positioned to within 200-400 μm from the oocyte. Responses were recorded by computer in synchrony with agonist application. Antagonists were included with agonist in the push/pull applicator and were applied to the bath by superfusion for at least 3 minutes before application of agonist. Responses were quantified by measuring the peak amplitude.
The clone was grown up and prepared in large scale using the QlAgen maxiprep DNA preparation system according to the manufacturer's instructions. The DNA was ethanol precipitated and resuspended in TE buffer. For RNA production, the P2X4 -pCNDA3.1 cvonstruct was linearized by digestion with the restriction enzyme Notl and P2X4 messenger RNA was produced using the T7 promoter in this vector and the Ambion mMessage mMachine in vitro transcription kit according to the manufacturer's instructions.
For functional analysis of human P2X4 receptors, 10 ng of human P2X4 receptor DNA prepared as described above was injected into the nucleus of Xenopus oocytes. Alternatively, 50 ng of human P2X4 receptor RNA prepared as described above was injected into the ooxyte cytoplasm. Oocytes were incubated in normal Barth's solution containing 100 μg/ml gentamicin for 2-7 days following injection. The response to 10 μM ATP was then recorded.

hP2X2b receptors = biological target: T2, hP2X2b receptors (Homo sapiens, UniProt Q9UBL9); assay: Two-electrode voltage-clamp of Xenopus oocytes expressing hP2X2b receptors; type: cell-based
T2 construct: expressed in transfected cells; host or cells: Xenopus laevis oocytes, cytoplasmic injection of 50 ng in vitro transcribed RNA, one subtype per cell
T2 sequence (Q9UBL9 1-404 isoform Q9UBL9-2): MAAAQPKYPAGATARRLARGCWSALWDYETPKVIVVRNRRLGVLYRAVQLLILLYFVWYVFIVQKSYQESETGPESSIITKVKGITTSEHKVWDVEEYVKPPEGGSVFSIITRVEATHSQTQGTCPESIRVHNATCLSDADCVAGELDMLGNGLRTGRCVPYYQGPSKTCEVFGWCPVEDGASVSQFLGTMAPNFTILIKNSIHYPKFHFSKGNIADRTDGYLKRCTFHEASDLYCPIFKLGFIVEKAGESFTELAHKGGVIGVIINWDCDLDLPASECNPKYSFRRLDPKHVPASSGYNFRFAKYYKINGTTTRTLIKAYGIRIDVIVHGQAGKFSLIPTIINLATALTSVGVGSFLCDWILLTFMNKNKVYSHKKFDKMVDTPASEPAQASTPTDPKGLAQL
Protocol: (§1) To assess function of the human P2X2 receptors, RNA was synthesized from the clones using the T7 bacterial promoter present on the pCRscript vector and reagents from Ambion (Message Machine; Ambion, Inc., Austin Tex.).
(§2) Adult female frogs (Xenopus laevis) were anesthetized with 0.2% tricaine before surgery. During surgery, sections of one ovary were removed and oocytes were denuded of overlying follicle cells by agitation for 1-2 hours in 2 mg/ml collagenase (Sigma type IA) in low-Ca^2+ Barth's solution containing (in mM): 88 NaCl, 2.5 KCl, 1.0 MgCl2 10 Na-HEPES (pH 7.4) plus 100 μg/ml gentamicin. Selection of stage V and VI oocytes was begun after approximately 50% of the cells were denuded. Cytoplasmic injections of 50 ng hP2X2a-d RNA were performed on denuded oocytes using a glass microelectrode. Only one receptor subtype RNA was injected per cell. Oocytes were used for recording 1-2 days after injection and were maintained at 16-19° C. in normal Barth's solution (incubation medium in mM): 90 NaCl, 1.0 KCl, 0.66 NaNO3, 0.74 CaCl2, 0.82 MgCl2, 2.4 NaHCO3, 2.5 Na-pyruvate, 10 Na-HEPES (pH 7.4) plus 100 μg/ml gentamicin.
(§3) The standard recording solution contained (in mM): 96 NaCl, 2.0 KCl, 1.8 BaCl2, 1.0 MgCl2, 5.0 Na-pyruvate, and 5.0 Na-HEPES (pH 7.4). BaCl2 was replaced with CaCl2 (1 mM) in some experiments without significant effects on the pharmacological properties of the receptors. All oocyte solutions were diluted in distilled H2 O from 10×stock solutions. Concentrated stocks of agonists and antagonists were made in distilled H2 O and then serially diluted in recording solution to desired final concentrations. All chemicals and agonists (ATP and α,βme-ATP) were obtained from Sigma Chemical Company.
(§4) Transmembrane currents were recorded using two-electrode voltage-clamp techniques with an Axoclamp-2 A amplifier, and were collected and analyzed using pCLAMP software (Axon Instruments). Electrodes (1.5-2.0 M'.OMEGA.) were filled with 120 mM KCl. Responses to ATP and α,βme-ATP were routinely recorded at room temperature while the oocyte membrane was voltage-clamped at -60 mV. […]

hP2X2a receptors = biological target: T3, hP2X2a receptors (Homo sapiens, UniProt Q9UBL9); assay: Two-electrode voltage-clamp of Xenopus oocytes expressing hP2X2a receptors; type: cell-based
T3 construct: expressed in transfected cells; host or cells: Xenopus laevis oocytes, cytoplasmic injection of 50 ng in vitro transcribed RNA, one subtype per cell
T3 sequence (Q9UBL9 1-471): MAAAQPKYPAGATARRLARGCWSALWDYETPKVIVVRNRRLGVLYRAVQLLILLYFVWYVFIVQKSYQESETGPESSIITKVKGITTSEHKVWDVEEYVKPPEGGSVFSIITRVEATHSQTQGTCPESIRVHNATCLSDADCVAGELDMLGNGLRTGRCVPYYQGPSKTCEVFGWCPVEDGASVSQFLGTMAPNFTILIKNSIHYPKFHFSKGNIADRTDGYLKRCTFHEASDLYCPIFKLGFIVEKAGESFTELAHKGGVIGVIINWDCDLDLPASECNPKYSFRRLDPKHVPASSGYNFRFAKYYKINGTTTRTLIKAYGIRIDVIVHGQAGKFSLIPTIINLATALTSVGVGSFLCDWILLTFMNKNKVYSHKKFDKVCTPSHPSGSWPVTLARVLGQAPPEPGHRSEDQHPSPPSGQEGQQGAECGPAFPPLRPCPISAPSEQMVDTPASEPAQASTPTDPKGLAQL
Protocol: as §1, §2, §3, §4

hP2X2c = assay: Two-electrode voltage-clamp of Xenopus oocytes injected with hP2X2c RNA; type: cell-based, human; details: 30 μM ATP, transient external application
Protocol: as §1
as §2, with “Oocytes were used for recording 1-2 days after injection and were maintained at 16-19° C. in normal Barth's solution (incubation medium in mM): 90 NaCl, 1.0 KCl, 0.66 NaNO3, 0.74 CaCl2, 0.82 MgCl2, 2.4 NaHCO3, 2.5 Na-pyruvate, 10 Na-HEPES (pH 7.4) plus 100 μg/ml gentamicin.” left out
as §4, with “Electrodes (1.5-2.0 M'.OMEGA.) were filled with 120 mM KCl.” left out

hP2X2d = assay: Two-electrode voltage-clamp of Xenopus oocytes injected with hP2X2d RNA; type: cell-based, human; details: 30 μM ATP, transient external application
Protocol: as §1
as §2, with “Oocytes were used for recording 1-2 days after injection and were maintained at 16-19° C. in normal Barth's solution (incubation medium in mM): 90 NaCl, 1.0 KCl, 0.66 NaNO3, 0.74 CaCl2, 0.82 MgCl2, 2.4 NaHCO3, 2.5 Na-pyruvate, 10 Na-HEPES (pH 7.4) plus 100 μg/ml gentamicin.” left out
as §4, with “Electrodes (1.5-2.0 M'.OMEGA.) were filled with 120 mM KCl.” left out

## Nc1ncnc2c1ncn2[C@@H]1O[C@H](COP(=O)(O)OP(=O)(O)OP(=O)(O)O)[C@@H](O)[C@H]1O [ATP]
Human P2X4 receptor; DNA-injected oocytes, concentration-response 0.1-1000 μM ATP
  EC50: ~2000 nM and 1000 to 2000 nM
Human P2X4 receptor; RNA-injected oocytes, read-out: ATP EC50
  EC50: 1000 to 2000 nM
Human P2X4 receptor; oocytes injected with human P2X4 receptor DNA
  mixed-conductance cation current on extracellular application of ATP: 100-1000 nA
hP2X2b receptors; oocytes expressing hP2X2b, three cells
  Hill coefficient (nH): 1.5
hP2X2b receptors; oocytes expressing hP2X2b, three cells, -60 mV, read-out: mean ATP EC50 (peak inward current)
  EC50: 20000 nM
hP2X2a receptors; oocytes expressing hP2X2a, four cells
  Hill coefficient (nH): 1.5
hP2X2a receptors; oocytes expressing hP2X2a, four cells, -60 mV, read-out: mean ATP EC50 (peak inward current)
  EC50: 16000 nM
hP2X2c
  agonist effect on receptor current: had no effect
hP2X2d
  agonist effect on receptor current: had no effect

## Cc1ccc(C(=O)Nc2ccc(S(=O)(=O)O)c3cc(S(=O)(=O)O)cc(S(=O)(=O)O)c23)cc1NC(=O)c1cccc(NC(=O)Nc2cccc(C(=O)Nc3cc(C(=O)Nc4ccc(S(=O)(=O)O)c5cc(S(=O)(=O)O)cc(S(=O)(=O)O)c45)ccc3C)c2)c1 [suramin]
Human P2X4 receptor; DNA-injected oocytes, suramin 10 μM, ATP 10 μM
  antagonism of ATP-induced currents: failed to depress
Human P2X4 receptor; RNA-injected oocytes, suramin 1 μM, ATP 3 μM
  antagonism of ATP responses: failed to depress
Human P2X4 receptor; RNA-injected oocytes, suramin 10 μM, ATP 3 μM
  antagonism of ATP responses: failed to depress
Human P2X4 receptor; RNA-injected oocytes, suramin 100 μM, ATP 3 μM, read-out: ATP response remaining, % of control
  remaining activity at 100 µM: ~80%

## Nc1ncnc2c1ncn2[C@@H]1O[C@H](COP(=O)(O)CP(=O)(O)OP(=O)(O)O)[C@@H](O)[C@H]1O [αβMe-ATP, α,β-methylene-ATP]
Human P2X4 receptor; RNA-injected oocytes, read-out: maximal current relative to maximal ATP current
  Emax: 20 to 25%
hP2X2b receptors; 100 μM agonist, hP2X2b
  agonist effect on receptor current: had no effect
hP2X2a receptors; 100 μM agonist, hP2X2a
  agonist effect on receptor current: had no effect
